# Source: the NIST ThermoML archive (doi:10.1021/acs.jced.9b00327)
# Numbers after ± are expanded uncertainties.
# Experiment: mn = molality of the nth substance listed, in mol/kg
# Settings: 100 kPa, Liquid; for speed of sound: Single path-length method; for mass density: Vibrating tube method
smiles,measurement,setting,value
NCCCC(=O)O [4-aminobutanoic acid] + O,speed of sound,"293.15 K, m1 = 0.09972",1491.4 ± 4.3 m/s
same,speed of sound,"293.15 K, m1 = 0.1479",1495.4 ± 4.3 m/s
same,speed of sound,"293.15 K, m1 = 0.1942",1499.3 ± 4.3 m/s
same,speed of sound,"293.15 K, m1 = 0.2449",1503.5 ± 4.3 m/s
same,speed of sound,"293.15 K, m1 = 0.2937",1507.6 ± 4.3 m/s
same,speed of sound,"293.15 K, m1 = 0.3452",1511.8 ± 4.3 m/s
same,speed of sound,"293.15 K, m1 = 0.3928",1515.7 ± 4.3 m/s
same,mass density,"293.15 K, m1 = 0.09972",1000.99 ± 1.1 kg/m3
same,mass density,"293.15 K, m1 = 0.1479",1002.31 ± 1.1 kg/m3
same,mass density,"293.15 K, m1 = 0.1942",1003.57 ± 1.1 kg/m3
same,mass density,"293.15 K, m1 = 0.2449",1004.94 ± 1.1 kg/m3
same,mass density,"293.15 K, m1 = 0.2937",1006.23 ± 1.1 kg/m3
same,mass density,"293.15 K, m1 = 0.3452",1007.58 ± 1.1 kg/m3
same,mass density,"293.15 K, m1 = 0.3928",1008.82 ± 1.1 kg/m3
same,speed of sound,"298.15 K, m1 = 0.09972",1505 ± 4.4 m/s
same,speed of sound,"298.15 K, m1 = 0.1479",1508.9 ± 4.3 m/s
same,speed of sound,"298.15 K, m1 = 0.1942",1512.7 ± 4.3 m/s
same,speed of sound,"298.15 K, m1 = 0.2449",1516.8 ± 4.3 m/s
same,speed of sound,"298.15 K, m1 = 0.2937",1520.7 ± 4.3 m/s
same,speed of sound,"298.15 K, m1 = 0.3452",1524.8 ± 4.3 m/s
same,speed of sound,"298.15 K, m1 = 0.3928",1528.7 ± 4.2 m/s
same,mass density,"298.15 K, m1 = 0.09972",999.771 ± 1.1 kg/m3
same,mass density,"298.15 K, m1 = 0.1479",1001.05 ± 1.1 kg/m3
same,mass density,"298.15 K, m1 = 0.1942",1002.26 ± 1.1 kg/m3
same,mass density,"298.15 K, m1 = 0.2449",1003.56 ± 1.1 kg/m3
same,mass density,"298.15 K, m1 = 0.2937",1004.78 ± 1.1 kg/m3
same,mass density,"298.15 K, m1 = 0.3452",1006.04 ± 1.1 kg/m3
same,mass density,"298.15 K, m1 = 0.3928",1007.19 ± 1.1 kg/m3
same,speed of sound,"303.15 K, m1 = 0.09972",1517 ± 4.4 m/s
same,speed of sound,"303.15 K, m1 = 0.1479",1520.8 ± 4.3 m/s
same,speed of sound,"303.15 K, m1 = 0.1942",1524.4 ± 4.3 m/s
same,speed of sound,"303.15 K, m1 = 0.2449",1528.4 ± 4.3 m/s
same,speed of sound,"303.15 K, m1 = 0.2937",1532.2 ± 4.3 m/s
same,speed of sound,"303.15 K, m1 = 0.3452",1536.2 ± 4.3 m/s
same,speed of sound,"303.15 K, m1 = 0.3928",1539.9 ± 4.2 m/s
same,mass density,"303.15 K, m1 = 0.09972",998.354 ± 1.1 kg/m3
same,mass density,"303.15 K, m1 = 0.1479",999.634 ± 1.1 kg/m3
same,mass density,"303.15 K, m1 = 0.1942",1000.85 ± 1.1 kg/m3
same,mass density,"303.15 K, m1 = 0.2449",1002.16 ± 1.1 kg/m3
same,mass density,"303.15 K, m1 = 0.2937",1003.41 ± 1.1 kg/m3
same,mass density,"303.15 K, m1 = 0.3452",1004.71 ± 1.1 kg/m3
same,mass density,"303.15 K, m1 = 0.3928",1005.89 ± 1.1 kg/m3
same,speed of sound,"308.15 K, m1 = 0.09972",1527.4 ± 4.4 m/s
same,speed of sound,"308.15 K, m1 = 0.1479",1531.1 ± 4.3 m/s
same,speed of sound,"308.15 K, m1 = 0.1942",1534.6 ± 4.3 m/s
same,speed of sound,"308.15 K, m1 = 0.2449",1538.5 ± 4.3 m/s
same,speed of sound,"308.15 K, m1 = 0.2937",1542.1 ± 4.3 m/s
same,speed of sound,"308.15 K, m1 = 0.3452",1546 ± 4.3 m/s
same,speed of sound,"308.15 K, m1 = 0.3928",1549.6 ± 4.2 m/s
same,mass density,"308.15 K, m1 = 0.09972",996.682 ± 1.1 kg/m3
same,mass density,"308.15 K, m1 = 0.1479",997.926 ± 1.1 kg/m3
same,mass density,"308.15 K, m1 = 0.1942",999.104 ± 1.1 kg/m3
same,mass density,"308.15 K, m1 = 0.2449",1000.37 ± 1.1 kg/m3
same,mass density,"308.15 K, m1 = 0.2937",1001.56 ± 1.1 kg/m3
same,mass density,"308.15 K, m1 = 0.3452",1002.8 ± 1.1 kg/m3
same,mass density,"308.15 K, m1 = 0.3928",1003.92 ± 1.1 kg/m3
same,speed of sound,"313.15 K, m1 = 0.09972",1536.3 ± 4.3 m/s
same,speed of sound,"313.15 K, m1 = 0.1479",1539.8 ± 4.3 m/s
same,speed of sound,"313.15 K, m1 = 0.1942",1543.2 ± 4.3 m/s
same,speed of sound,"313.15 K, m1 = 0.2449",1547 ± 4.3 m/s
same,speed of sound,"313.15 K, m1 = 0.2937",1550.5 ± 4.3 m/s
same,speed of sound,"313.15 K, m1 = 0.3452",1554.3 ± 4.3 m/s
same,speed of sound,"313.15 K, m1 = 0.3928",1557.8 ± 4.2 m/s
same,mass density,"313.15 K, m1 = 0.09972",994.848 ± 1.1 kg/m3
same,mass density,"313.15 K, m1 = 0.1479",996.089 ± 1.1 kg/m3
same,mass density,"313.15 K, m1 = 0.1942",997.262 ± 1.1 kg/m3
same,mass density,"313.15 K, m1 = 0.2449",998.525 ± 1.1 kg/m3
same,mass density,"313.15 K, m1 = 0.2937",999.722 ± 1.1 kg/m3
same,mass density,"313.15 K, m1 = 0.3452",1000.96 ± 1.1 kg/m3
same,mass density,"313.15 K, m1 = 0.3928",1002.08 ± 1.1 kg/m3
same,speed of sound,"318.15 K, m1 = 0.09972",1543.7 ± 4.2 m/s
same,speed of sound,"318.15 K, m1 = 0.1479",1547.1 ± 4.2 m/s
same,speed of sound,"318.15 K, m1 = 0.1942",1550.4 ± 4.2 m/s
same,speed of sound,"318.15 K, m1 = 0.2449",1554 ± 4.2 m/s
same,speed of sound,"318.15 K, m1 = 0.2937",1557.5 ± 4.2 m/s
same,speed of sound,"318.15 K, m1 = 0.3452",1561.1 ± 4.2 m/s
same,speed of sound,"318.15 K, m1 = 0.3928",1564.5 ± 4.2 m/s
same,mass density,"318.15 K, m1 = 0.09972",992.851 ± 1.1 kg/m3
same,mass density,"318.15 K, m1 = 0.1479",994.097 ± 1.1 kg/m3
same,mass density,"318.15 K, m1 = 0.1942",995.285 ± 1.1 kg/m3
same,mass density,"318.15 K, m1 = 0.2449",996.567 ± 1.1 kg/m3
same,mass density,"318.15 K, m1 = 0.2937",997.781 ± 1.1 kg/m3
same,mass density,"318.15 K, m1 = 0.3452",999.045 ± 1.1 kg/m3
same,mass density,"318.15 K, m1 = 0.3928",1000.2 ± 1.1 kg/m3
